Structures can show the parent of a compound that is named as a salt.
melting point | Compound
148 to 158 °C (dec.) | CN(C)CCNC(=O)C1=C[C@@]2(CC1)CCN(C(=O)c1ccc(NC(=O)c3ccccc3F)cc1)c1ccccc1C2 (as salt: phosphate)
263 to 265 °C | O=C(O)C1=C[C@@]2(CC1)CCN(C(=O)c1ccc(NC(=O)c3ccccc3-c3ccccc3)cc1)c1ccccc1C2
180 to 185 °C (dec.) | CN(C)CCNC(=O)C1=C[C@@]2(CC1)CCN(C(=O)c1ccc(NC(=O)c3ccccc3-c3ccccc3)cc1)c1ccccc1C2.O=C(O)c1ccccc1
